Measured values from US20260365628A1, “SUBSTITUTED 3,4-DIHYDROQUINOLINONE INHIBITORS OF TSHR” (Septerna, Inc., priority 2022, published 2026).

biological target: T1, hTSHR (Homo sapiens, UniProt P16473); assay: hTSHR TR-FRET cAMP Assay (inhibition of M22-stimulated cAMP production); format: cell-based; conditions: Expi293F Inducible cells stably expressing hTSHR; cAMP HTRF; stimulated with EC80 of anti-TSHR antibody M22; 15 min compound preincubation, 30 min at 37° C.; read-out: Activity (IC50 bins)
T1 construct: expressed in transfected cells
Outline: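 Readout was a cAMP HTRF ratio of 655/620 nm after lysis, scaled between the EC80 M22 signal (0% inhibition) and no-agonist vehicle (100%). Frozen induced Expi293F-hTSHR cells saw test compounds (0.5% DMSO) for 15 min at 37 °C before 30 min of M22 stimulation at EC80.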

T1 sequence (P16473 21-764): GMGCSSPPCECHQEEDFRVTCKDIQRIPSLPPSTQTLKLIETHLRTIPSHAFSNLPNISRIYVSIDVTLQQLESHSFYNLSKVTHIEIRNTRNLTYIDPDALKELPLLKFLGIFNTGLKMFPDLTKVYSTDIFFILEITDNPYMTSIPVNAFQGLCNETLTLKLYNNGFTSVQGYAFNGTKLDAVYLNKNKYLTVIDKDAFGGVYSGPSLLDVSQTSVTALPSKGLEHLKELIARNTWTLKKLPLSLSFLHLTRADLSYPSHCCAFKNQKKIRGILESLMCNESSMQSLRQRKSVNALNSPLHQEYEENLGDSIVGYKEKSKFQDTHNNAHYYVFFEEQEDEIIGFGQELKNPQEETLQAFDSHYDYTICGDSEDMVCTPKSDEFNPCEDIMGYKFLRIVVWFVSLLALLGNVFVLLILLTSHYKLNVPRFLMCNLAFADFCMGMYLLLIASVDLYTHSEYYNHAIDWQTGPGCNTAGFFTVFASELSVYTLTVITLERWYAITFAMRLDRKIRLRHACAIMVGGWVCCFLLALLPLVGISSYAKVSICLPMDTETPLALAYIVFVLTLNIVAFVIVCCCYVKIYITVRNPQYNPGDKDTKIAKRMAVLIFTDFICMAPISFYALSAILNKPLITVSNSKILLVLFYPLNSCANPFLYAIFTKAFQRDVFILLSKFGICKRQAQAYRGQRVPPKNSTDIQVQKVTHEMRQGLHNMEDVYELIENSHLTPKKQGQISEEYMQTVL

Structure (SMILES)	IC50
C[C@H]1Oc2cc(NC(=O)NC(C)(C)C)ccc2N(Cc2nc(C(F)(F)F)cs2)C1=O [Example 168, (R)-1-(tert-butyl)-3-(2-methyl-3-oxo-4-((4-(trifluoro-methyl)thiazol-2-yl)methyl)-3,4-dihydro-2H-benzo [b][1,4]oxazin-7-yl)urea]	100 to 1000 nM
C[C@@H](c1ccccc1)n1c(=O)cnc2cc(NC(=O)NC(C)(C)C)c(C3CC3)cc21 [Example 348, 3-tert-butyl-1-{7-cyclopropyl-2-oxo-1-[(1S)-1-phenylethyl]quinoxalin-6-yl}urea]	100 to 1000 nM
CC(C)(C)NC(=O)Nc1ccc2c(c1)C[C@@H](CC#N)C(=O)N2Cc1ccccc1 [Example 276, (S)-1-(1-benzyl-3-(cyanomethyl)-2-oxo-1,2,3,4-tetrahydroquinolin-6-yl)-3-(tert-butyl)urea]	> 1000 nM
CC(C)(C)NC(=O)Nc1ccc2c(c1)OCC(=O)N2Cc1cccc(C(O)C(F)(F)F)c1 (stereo not shown) [Example 77, 1-(tert-butyl)-3-(3-oxo-4-(3-(2,2,2-trifluoro-1-hy-droxyethyl)benzyl)-3,4-dihydro-2H-benzo[b][1,4]oxa-zin-7-yl)urea]	100 to 1000 nM
C[C@H]1Oc2cc(NC(=O)NC3(C)CCCC3)ccc2N([C@@H](C)c2ccccc2)C1=O [Example 256, 1-((R)-2-methyl-3-oxo-4-((S)-1-phenyl-ethyl)-3,4-dihydro-2H-benzo[b][1,4]oxazin-7-yl)-3-(1-methylcyclopentyl)-urea]	< 100 nM
CC(C)(C)NC(=O)Nc1ccc2c(c1)ncc(=O)n2Cc1cccc(CCC(F)(F)F)c1 [Example 92, 1-(tert-butyl)-3-(2-oxo-1-(3-(3,3,3-trifluoro-propyl)benzyl)-1,2-dihydro-quinoxalin-6-yl)urea]	100 to 1000 nM
CCc1nc2cc(NC(=O)NC(C)(C)C)ccc2n(Cc2cccc(OC(F)(F)F)c2)c1=O [Example 295, 1-(tert-butyl)-3-(3-ethyl-2-oxo-1-(3-(trifluoromethoxy)benzyl)-1,2-dihydroquinoxalin-6-yl)urea]	> 1000 nM
Cc1ccc(C#N)c(CN2C(=O)[C@H](C)Oc3cc(NC(=O)NC(C)(C)C)ccc32)c1 [Example 88, (S)-1-(tert-butyl)-3-(4-(2-cyano-5-methylbenzyl)-2-methyl-3-oxo-3,4-dihydro-2H-benzo[b][1,4]oxazin-7-yl)urea]	> 1000 nM
CC1(C)CCCC1C(=O)Nc1ccc2c(c1)ncc(=O)n2Cc1ccccc1 (stereo not shown) [Example 308, N-(1-benzyl-2-oxo-1,2-dihydroquinoxalin-6-yl)-2,2-dimethylcyclopentane-1-carboxamide]	100 to 1000 nM
C[C@H]1Oc2cc(NC(=O)NC(C)(C)C)ccc2N(Cc2cc(Cl)ccc2C#N)C1=O [Example 85, (R)-1-(tert-butyl)-3-(4-(5-chloro-2-cyanobenzyl)-2-methyl-3-oxo-3,4-dihydro-2H-benzo[b][1,4]oxazin-7-yl)urea]	100 to 1000 nM
C[C@@H](c1cc(Cl)ccc1F)n1c(=O)cnc2cc(NC(=O)NC(C)(C)C)c(C#N)cc21 [Example 364, 3-tert-butyl-1-{1-[(1S)-1-(5-chloro-2-fluorophenyl)ethyl]-7-cyano-2-oxoquinoxalin-6-yl}urea]	100 to 1000 nM
C[C@H]1Oc2cc(NC(=O)NC(C)(C)C)ccc2N([C@@H](C)c2cccc(OC(F)(F)F)c2)C1=O [Example 184, 1-(tert-butyl)-3-((R)-2-methyl-3-oxo-4-((S)-1-(3-(trifluoromethoxy)phenyl)ethyl)-3,4-dihydro-2H-benzo[b][1,4]oxazin-7-yl)urea]	100 to 1000 nM
C[C@H]1Oc2cc(NC(=O)NC(C)(C)C)ccc2N(Cc2cccc(C(F)(F)F)n2)C1=O [Example 161, (R)-1-(tert-butyl)-3-(2-methyl-3-oxo-4-((6-(trifluoro-methyl)pyridin-2-yl)methyl)-3,4-dihydro-2H-benzo [b][1,4]oxazin-7-yl)urea]	< 100 nM
CC(C)(C)NC(=O)Nc1ccc2c(c1)CCC(=O)N2Cc1cc(Cl)ccc1Cl [Example 24, 3-tert-butyl-1-{1-[(2,5-dichlorophenyl)methyl]-2-oxo-3,4-dihydroquinolin-6-yl}urea]	< 100 nM
C[C@@H](c1cccc2c1COCC2)n1c(=O)cnc2cc(NC(=O)NC(C)(C)C)ccc21 [Example 123, (S)-1-(tert-butyl)-3-(1-(1-(isochroman-8-yl)ethyl)-2-oxo-1,2-dihydroquinoxalin-6-yl)urea]	100 to 1000 nM
CC(c1cccc(C2CCC2)c1)n1c(=O)cnc2cc(NC(=O)NC(C)(C)C)ccc21 (stereo not shown) [Example 246, 1-(tert-butyl)-3-(1-(1-(3-cyclobutylphenyl)ethyl)-2-oxo-1,2-dihydroquinoxalin-6-yl)urea]	100 to 1000 nM
CC(C)(CC#N)NC(=O)Nc1ccc2c(c1)ncc(=O)n2Cc1cccc(OC(F)(F)F)c1 [Example 245, 1-(1-cyano-2-methylpropan-2-yl)-3-(2-oxo-1-(3-(trifluoromethoxy)enzyl)-1,2-dihydroquinoxalin-6-yl)urea]	> 1000 nM
C[C@@H](c1cccc2c1CCC2)n1c(=O)cnc2cc(NC(=O)NC(C)(C)C)ccc21 [Example 125, (S)-1-(tert-butyl)-3-(1-(1-(2,3-dihydro-1H-inden-4-yl)ethyl)-2-oxo-1,2-dihydroquinoxalin-6-yl)urea]	100 to 1000 nM
CC(C)(NC(=O)Nc1ccc2c(c1)ncc(=O)n2Cc1ccccc1)C(F)F [Example 199, 1-(1-benzyl-2-oxo-1,2-dihydroquinoxalin-6-yl)-3-(1,1-difluoro-2-methylpropan-2-yl)urea]	100 to 1000 nM
C[C@@H](c1cccc2c1CCOC2)n1c(=O)cnc2cc(NC(=O)NC(C)(C)C)ccc21 [Example 124, (S)-1-(tert-butyl)-3-(1-(1-(isochroman-5-yl)ethyl)-2-oxo-1,2-dihydroquinoxalin-6-yl)urea]	> 1000 nM
C[C@@H](c1cccc(C(F)(F)F)c1)n1c(=O)cnc2cc(NC(=O)NC3(C)CCC3)ccc21 [Example 320, (S)-1-(1-methylcyclobutyl)-3-(2-oxo-1-(1-(3-(trifluoromethyl)phenyl)ethyl)-1,2-dihydroquinoxalin-6-yl)urea]	100 to 1000 nM
C[C@H]1Oc2cc(NC(=O)NC3(C(F)(F)F)COC3)ccc2N([C@@H](C)c2ccccc2)C1=O [Example 263, 1-((R)-2-methyl-3-oxo-4-((S)-1-phen-ylethyl)-3,4-dihydro-2H-benzo[b][1,4]oxazin-7-yl)-3-(3-(trifluoromethyl)-oxetan-3-yl)urea]	100 to 1000 nM
C[C@H]1Oc2cc(NC(=O)NC(C)(C)C)ccc2N(Cc2cncc(C(F)(F)F)c2)C1=O [Example 171, (R)-1-(tert-butyl)-3-(2-methyl-3-oxo-4-((5-(trifluoro-methyl)pyridin-3-yl)methyl)-3,4-dihydro-2H-benzo [b][1,4]oxazin-7-yl)urea]	100 to 1000 nM

The next lines start with the values.

IC50	Structure (SMILES)
< 100 nM	CC(C)(C)NC(=O)Nc1ccc2c(c1)CCC(=O)N2Cc1cccc(C(F)(F)F)c1 [Example 23, 1-(tert-butyl)-3-(2-oxo-1-(3-(trifluoromethyl)benzyl)-1,2,3,4-tetrahydroquinolin-6-yl)urea]
100 to 1000 nM	C[C@H]1Oc2c(cc(C(F)(F)F)c(NC(=O)NC(C)(C)C)c2F)N(Cc2cccc(C(F)F)c2)C1=O [Example 356, (R)-1-(tert-butyl)-3-(4-(3-(difluoromethyl)benzyl)-8-fluoro-2-methyl-3-oxo-6-(trifluoromethyl)-3,4-dihydro-2H-benzo[b][1,4]oxazin-7-yl)urea]
< 100 nM	CN1Cc2cc(NC(=O)NC(C)(C)C)ccc2N(Cc2cccc(Cl)c2)C1=O [Example 47, 1-(tert-butyl)-3-(1-(3-chlorobenzyl)-3-methyl-2-oxo-1,2,3,4-tetrahydroquinazolin-6-yl)urea]
> 1000 nM	CC(C)(C)NC(=O)Nc1ccc2c(c1)CCC(=O)N2C(CO)c1ccccc1 (stereo not shown) [Example 30, 1-(tert-butyl)-3-(1-(2-hydroxy-1-phenylethyl)-2-oxo-1,2,3,4-tetrahydroquinolin-6-yl)urea]
100 to 1000 nM	C[C@@H](c1cccc(Cl)c1)n1c(=O)cnc2cc(NC(=O)NC(C)(C)C)c(C(F)(F)F)cc21 [Example 358, 3-tert-butyl-1-{1-[(1S)-1-(3-chlorophenyl)ethyl]-2-oxo-7-(trifluoromethyl)quinoxalin-6-yl}urea]
100 to 1000 nM	CC(C)(C)NC(=O)Nc1ccc2c(c1)OCC(=O)N2Cc1cccc([C@H](O)C(F)(F)F)c1 [Example 79, (S)-1-(tert-butyl)-3-(3-oxo-4-(3-(2,2,2-trifluoro-1-hy-droxyethyl)benzyl)-3,4-dihydro-2H-benzo[b][1,4]oxa-zin-7-yl)urea]
100 to 1000 nM	C[C@@H](c1cccc(C(F)F)c1)n1c(=O)cnc2cc(NC(=O)NC(C)(C)C)ccc21 [Example 122, (S)-1-(tert-butyl)-3-(1-(1-(3-(difluoro-methyl)phenyl)ethyl)-2-oxo-1,2-dihydroquinoxalin-6-yl)urea]
> 1000 nM	C[C@@H](c1cccc(Cl)c1)N1C(=O)CCc2nc(NC(=O)NC(C)(C)C)ccc21 [Example 290, (S)-1-(tert-butyl)-3-(5-(1-(3-chlorophenyl)ethyl)-6-oxo-5,6,7,8-tetrahydro-1,5-naphthyridin-2-yl)urea]
> 1000 nM	CC(C)(C)NC(=O)Nc1ccc2c(c1)CC(C)(C)C(=O)N2Cc1ccccc1 [Example 29, 1-(1-benzyl-3,3-dimethyl-2-oxo-1,2,3,4-tetrahydroquinolin-6-yl)-3-(tert-butyl)urea]
> 1000 nM	C[C@@H](c1cccc(C#CC(C)(C)O)c1)n1c(=O)cnc2cc(NC(=O)NC(C)(C)C)ccc21 [Example 113, (S)-1-(tert-butyl)-3-(1-(1-(3-(3-hydroxy-3-methylbut-1-yn-1-yl)phenyl)ethyl)-2-oxo-1,2-dihydroquinoxalin-6-yl)urea]
< 100 nM	C[C@H]1Oc2cc(NC(=O)NC(C)(C)C)c(C#N)cc2N(Cc2cccc(C(F)F)c2)C1=O [Example 342, (R)-1-(tert-butyl)-3-(6-cyano-4-(3-(difluoromethyl)benzyl)-2-methyl-3-oxo-3,4-dihydro-2H-benzo[b][1,4]oxazin-7-yl)urea]
